What was measured:
Format in all cases: cell-based
[1] = system: HSV-2 (herpes simplex virus type 2); assay: HSV-2 (strain 186) plaque reduction in WI-38 cell monolayers; settings: Human alphaherpesvirus 2, 96 h; WI-38 cells; at least 50% plaque reduction; 4 days at 37° C.; read-out: ID50 HSV-2 (strain 186)
[2] = system: HSV-1 (herpes simplex virus type 1); assay: HSV-1 (strain schooler) plaque reduction in WI-38 cell monolayers; settings: Human alphaherpesvirus 1, 96 h; WI-38 cells; at least 50% plaque reduction; 4 days at 37° C.; read-out: ID50 HSV-1 (strain schooler)
[3] = system: VZV (varicella-zoster virus), strain Ellen; assay: VZV (strain Ellen) plaque reduction in WI-38 cell monolayers; settings: Human alphaherpesvirus 3; WI-38 cells; at least 50% plaque reduction; 5-7 days at 37° C.; read-out: ID50 VZV (strain Ellen)
[4] = system: HCMV (human cytomegalovirus); assay: HCMV (strain AD169) plaque reduction in WI-38 cell monolayers; settings: Human betaherpesvirus 5, AD169; WI-38 cells; at least 50% plaque reduction; 5-7 days at 37° C.; read-out: ID50 HCMV (strain AD169)
[5] = system: VZV (varicella-zoster virus), strain Oka; assay: VZV (strain Oka) plaque reduction in WI-38 cell monolayers; settings: Human alphaherpesvirus 3, WI-38, read-out: ID50 VZV (strain Oka)
VV (vaccinia virus) = assay: microbe, parasite or virus in culture; settings: Orthopoxvirus vaccinia, WI-38, 96 h, read-out: ID50 VV (strain CL)

SMILES | IC50 [1] [µM] | IC50 [2] [µM] | IC50 [3] [µM] | IC50 [4] [µM] | IC50 [5] [nM] | IC50 (VV (vaccinia virus)) [µM]
Cc1cn([C@@H]2CO[C@H](CO)[C@H]2CO)c(=O)[nH]c1=O [Example 3, [3S-(3α,4β,5α)]-5-Methyl-1-[tetrahydro-4,5-bis(hydroxymethyl)-3-furanyl]-2,4(1H,3H)-pyrimidinedione] | 195 to 390 | 2 to 4 | 8 to 19 | > 390 | – | –
Nc1nc(=O)n([C@@H]2CO[C@H](CO)[C@H]2CO)cc1I [Example 9, [3S-(3α,4β ,5α)]-4-Amino-5-iodo-1-[tetrahydro-4,5-bis(hydroxymethyl)-3-furanyl]-2(1H)-pyrimidinone] | > 272 | 68 to 136 | 5 to 14 | > 272 | – | –
O=c1[nH]c(=O)n([C@@H]2CO[C@H](CO)[C@H]2CO)cc1/C=C/Br [Example 7, [3S-(3α(E),4β,5α)]-5-(2-Bromoethenyl)-1-[tetrahydro-4,5-bis(hydroxymethyl)-3-furanyl]-2,4(1H,3H)-pyrimidinedione] | > 288 | 1.4 to 2.8 | > 288 | > 288 | 1400 | –
Nc1ccn([C@@H]2CO[C@H](CO)[C@H]2CO)c(=O)n1 [Example 6, [3S-(3α,4β,5α)]-4-Amino-1-[tetrahydro-4,5-bis(hydroxymethyl)-3-furanyl]-2(1H)-pyrimidinone] | 21 to 41 | 21 to 41 | 0.2 to 0.4 | 41 to 104 | – | 41 to 415
O=c1[nH]c(=O)n([C@@H]2CO[C@H](CO)[C@H]2CO)cc1I [Example 5, [3S-(3α,4β,5α)]-5-Iodo-1-[tetrahydro-4,5-bis(hydroxymethyl)-3-furanyl]-2,4(1H,3H)-pyrimidinedione] | > 272 | 68 to 136 | 27 to 68 | > 272 | – | –
Nc1ncnc2c1ncn2[C@@H]1CO[C@H](CO)[C@H]1CO [Example 2, [3S-(3α,4β,5α)]-9-[Tetrahydro-4,5-bis(hydroxymethyl)-3-furanyl]-9H-purin-6-amine] | 3.8 to 7.5 | 3.8 to 7.5 | 1.9 to 3.8 | 1.9 to 3.8 | – | 8 to 19
Nc1nc2c(ncn2[C@@H]2CO[C@H](CO)[C@H]2CO)c(=O)[nH]1 [Example 1, [3S-(3α,4β,5α)]-2-Amino-1,9-dihydro-9-[tetrahydro-4,5-bis(hydroxymethyl)-3-furanyl]-6H-purin-6-one] | 1.8 | 7 | 18 to 36 | 356 | – | > 356
O=c1ccn([C@@H]2CO[C@H](CO)[C@H]2CO)c(=O)[nH]1 [Example 4, [3S-(3α,4β,5α)]-1-[Tetrahydro-4,5-bis(hydroxymethyl)-3-furanyl]-2,4(1H,3H)-pyrimidinedione] | > 413 | > 413 | 41 to 103 | > 413 | – | –
Cc1cn([C@@H]2CO[C@H](CO)[C@H]2CO)c(=O)nc1N [Example 8, [3S-(3α,4β,5α)]-4-Amino-5-methyl-1-[tetrahydro-4,5-bis(hydroxymethyl)-3-furanyl]-2(1H)-pyrimidinone] | 392 | 293 | 40 | > 392 | – | –

Reference: patent US5145960A, “Pyrimidinyl tetrahydrofurans” (priority 1991, dated 1992)
